One may read the IC50 as the concentration at which inhibition is half-maximal. Read a high IC50 as weaker potency.

Data on six compounds can be found in ChEMBL document CHEMBL1149359, “Total synthesis and biological evaluation of ustiloxin natural products and two analogs” (Bioorg Med Chem Lett, 2006).

One test concerns the target Tubulin. As to the kind of experiment: Inhibition of tubulin polymerization. Format: protein-complex assay, Homo sapiens.
The test system of the next test is CA46. As to the kind of experiment: Cytotoxicity against human CA46 cell line. In kind it is functional, cell-based.

At Tubulin, `CC[C@@]1(C)Oc2cc(ccc2O)[C@@H](O)[C@H](NC)C(=O)N[C@@H](C(C)C)C(=O)N[C@@H]1C(=O)NCC(=O)O` [USTILOXIN D] showed an IC50 of 1500 nM.

For `CC[C@@]1(C)Oc2cc(ccc2OC)[C@@H](O)[C@H](NC)C(=O)N[C@@H](C(C)C)C(=O)N[C@@H]1C(=O)NCC(=O)O`, the IC50 at Tubulin is greater than 40000 nM.

Compound `CC[C@@]1(C)Oc2cc(ccc2O)[C@@H](O)[C@H](NC)C(=O)N[C@@H](C)C(=O)N[C@@H]1C(=O)NCC(=O)O` [USTILOXIN F] returned an IC50 against Tubulin of 8200 nM.

For `CC[C@@H](C)[C@@H]1NC(=O)[C@@H](NC)[C@H](O)c2ccc(O)c(c2)O[C@](C)(CC)[C@@H](C(=O)NCC(=O)O)NC1=O`, on Tubulin, the concentration for half-maximal inhibition (IC50) is 4800 nM.

For `CC[C@@]1(C)Oc2cc(c([S+]([O-])C[C@@H](O)C[C@H](N)C(=O)O)cc2O)[C@@H](O)[C@H](NC)C(=O)N[C@@H](C(C)C)C(=O)N[C@@H]1C(=O)NCC(=O)O` (some centres not stated) [USTILOXIN A], the values for the IC50 with CA46 and at Tubulin were 2500 nM and 1100 nM, respectively.

`CC[C@H](C)[C@@H]([C@@H](CC(=O)N1CCC[C@H]1[C@H](OC)[C@@H](C)C(=O)N[C@@H](Cc1ccccc1)c1nccs1)OC)N(C)C(=O)[C@@H](NC(=O)[C@H](C(C)C)N(C)C)C(C)C` [DOLASTATIN-10] had a half-maximal inhibitory concentration (IC50) in the test on CA46 of 30 nM.
